The assay relates to clinical P. aeruginosa strains. Put plainly: Inhibition of motility of clinical P. aeruginosa strains on LB-agar plates. As to conditions: three clinical isolates of P. aeruginosa, 10 μg/ml C15 in LB-agar, 16 h at 37° C., compared with absence of C15. Type of assay: cell-based, Pseudomonas aeruginosa. The protocol: Motility of clinical P. aeruginosa strains was inhibited by 12-Methyl-tetradecanoic acid (C15). Three different clinical isolates of P. aeruginosa were plated on LB-agar plates in the absence (FIG. 9, left) and presence (FIG. 9, right) of 10 μg/ml C15 to inhibit cellular motility. The plates were incubated for 16 h at 37° C. […] In contrast, in the absence of C15, the colonies are diffuse and swarm into each other, making the selection of distinct single colonies in the knock-out screening process very difficult.

In the case of `CCC(C)CCCCCCCCCCC(=O)O` (centres unmarked) [C15, 12-Methyl-tetradecanoic acid], the “cellular motility / colony morphology on Luria Bertani agar plates” value is reported as “inhibited the cellular motility, leading to small well-defined colonies”. Moreover, the “cellular motility / colony morphology on Luria Bertani agar plates” value (listed as 12-Methyl-tetradecanoic acid (C15)) was “Inhibition of the motility”.

Source of the values: US20210222181A1, “BACTERIAL VECTORS FOR GENETIC MANIPULATION OF BACTERIA” (BIOVERSYS AG, priority 2018, published 2021).
